Measurements: patent US20260109707A1, “HETEROBIFUNCTIONAL COMPOUNDS AND METHODS OF TREATING DISEASE” (Halda Therapeutics OpCo. Inc., priority 2022, published 2026)
Where two headings read alike, the source gives them in different places.

Experiments:
VCaP cells = experiment: Cellular growth inhibition assay for VCaP cells (CellTiter-Glo, 72 hours); assay type: cell-based, human
Outline: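 Luminescent viability signal after 72 h of compound exposure gave GI50 values by four-parameter nonlinear regression. Compounds were added in 0.5% DMSO to cells plated 24 h earlier at 5000/well in DMEM containing 10% FBS.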

[1] = test system: T-Rex 293 cell line SC3 cells lacking increased expression of androgen receptor protein; experiment: Cellular growth inhibition assay, T-Rex 293 SC3 cells without doxycycline (CellTiter-Glo, 72 hours); assay type: cell-based; details: T-Rex 293 cell line SC3 cells not exposed to doxycycline (lacking increased androgen receptor expression)
Outline: (§1)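 Growth inhibition is measured in an inducible AR-expressing T-Rex 293 clone, SC3, cultured with or without 10 ng/mL doxycycline in hormone-depleted medium. Test compounds are applied for 72 hours. GI50 values derive from CellTiter-Glo 2.0 signal fitted by four-parameter regression.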

[2] = test system: T-Rex 293 cell line SC3 cells having increased expression of androgen receptor protein due to exposure to doxycycline; experiment: Cellular growth inhibition assay, T-Rex 293 SC3 cells with doxycycline (CellTiter-Glo, 72 hours); assay type: cell-based; details: T-Rex 293 SC3 cells with increased androgen receptor expression due to doxycycline (10 ng/mL)
Outline: as §1

Row | SMILES | GI50 (VCaP cells; Homo sapiens, VCaP, 72 h) [nM] | GI50 ([1]; 72 h) [nM] | GI50 ([2]; 72 h) [nM] | GI50 (VCaP cells) [nM] | GI50 [1] [nM] | GI50 [2] [nM]
1 | Cc1sc2c(c1C)C(c1cccc(CC3CC4(CCCN(c5ccc(C(=O)N[C@H]6CC[C@H](Oc7ccc(C#N)c(Cl)c7)CC6)nn5)C4)C3)c1)=N[C@@H](C)c1nnc(C)n1-2 (stereo partly drawn) [I-711] | < 500 | > 3000 | < 500 |  |  | 
2 | COCC[C@@H]1N=C(c2ccc(C3CCC4(CCCN(c5ccc(C(=O)N[C@H]6CC[C@H](Oc7ccc(C#N)c(Cl)c7)CC6)nn5)C4)CC3)cc2)c2c(sc(C)c2C)-n2c(C)nnc21 (stereo partly drawn) [I-657] |  |  |  | 500 to 1500 | > 3000 | < 500
3 | Cc1sc2c(c1C)C(c1ccc(COC3CCC4(CCCN(c5ccc(C(=O)N[C@H]6CC[C@H](Oc7ccc(C#N)c(Cl)c7)CC6)nn5)C4)C3)cc1)=N[C@@H](C)c1nnc(C)n1-2 (stereo partly drawn) [I-624] |  |  |  | 500 to 1500 | 500 to 1500 | < 500
4 | Cc1sc2c(c1C)C(c1ccc(N3CC(C4CCN(c5ccc(C(=O)N[C@H]6CC[C@H](Oc7ccc(C#N)c(Cl)c7)CC6)nn5)CC4)C3)cc1)=NCc1nnc(C)n1-2 [I-451] | 500 to 1500 | > 3000 | < 500 |  |  | 
5 | Cc1sc2c(c1C)C(c1ccc(N3CC(CC4CCCN(c5ccc(C(=O)N[C@H]6CC[C@H](Oc7ccc(C#N)c(Cl)c7)CC6)nn5)C4)C3)cc1)=NC1(CC1)c1nnc(C)n1-2 (stereo partly drawn) [I-562] |  | < 500 |  | > 3000 |  | < 500
6 | Cc1sc2c(c1C)C(c1ccc(C3CCC4(CCCN(c5ccc(C(=O)N[C@H]6CC[C@H](Oc7ccc(C#N)c(Cl)c7)CC6)nn5)C4)CC3)cc1)=NC(C(F)(F)F)c1nnc(C)n1-2 (stereo partly drawn) [I-697] |  |  |  | > 3000 | > 3000 | > 3000
7 | Cc1sc2c(c1C)C(c1ccc(N3CCC(CCc4ccc(C(=O)N[C@H]5CC[C@H](Oc6ccc(C#N)c(Cl)c6)CC5)nn4)CC3)cc1)=N[C@@H](Cc1ncco1)c1nnc(C)n1-2 [I-467] | < 500 | < 500 | < 500 |  |  | 
8 | Cc1sc2c(c1C)C(c1ccc(NC3CCCN(c4ncc(C(=O)N[C@H]5CC[C@H](Oc6ccc(C#N)c(Cl)c6)CC5)cn4)CC3)cc1)=NC(Cc1ncco1)c1nnc(C)n1-2 (stereo partly drawn) [I-789] | < 500 | < 500 | < 500 |  |  | 
9 | Cc1sc2c(c1C)C(c1ccc(OC3CCC4(CCN(c5ccc(C(=O)N[C@H]6CC[C@H](Oc7ccc(C#N)c(Cl)c7)CC6)nn5)C4)C3)cc1)=N[C@@H](C)c1nnc(C)n1-2 (stereo partly drawn) [I-701] | < 500 |  |  |  | < 500 | < 500
10 | Cc1sc2c(c1C)C(c1ccc(CC3CCC4(C3)CN(c3ccc(C(=O)N[C@H]5CC[C@H](Oc6ccc(C#N)c(Cl)c6)CC5)nn3)CCO4)cc1)=N[C@@H](C)c1nnc(C)n1-2 (stereo partly drawn) [I-579] |  |  |  | 1500 to 3000 | < 500 | < 500
11 | Cc1sc2c(c1C)C(c1ccc(N3CCC4CN(c5ccc(C(=O)N[C@H]6CC[C@H](Oc7ccc(C#N)c(Cl)c7)CC6)nn5)CCC4C3)cc1)=N[C@@H](C)c1nnc(C)n1-2 (stereo partly drawn) [I-621] |  |  |  | 500 to 1500 | > 3000 | < 500
12 | Cc1sc2c(c1C)C(c1cccc(N3CC4(CCCN(c5ccc(C(=O)N[C@H]6CC[C@H](Oc7ccc(C#N)c(Cl)c7)CC6)nn5)C4)C3)c1)=N[C@@H](C)c1nnc(C)n1-2 [I-710] | > 3000 | > 3000 | < 500 |  |  | 
13 | Cc1sc2c(c1C)C(c1ccc(OCC3CC4(CCCN(c5ccc(C(=O)N[C@H]6CC[C@H](Oc7ccc(C#N)c(Cl)c7)CC6)nn5)C4)C3)cn1)=NC1(CC1)c1nnc(C)n1-2 (stereo partly drawn) [I-597] |  |  |  | < 500 | > 3000 | < 500
14 | CCNC(=O)C[C@@H]1N=C(c2cccc(OCCOCCOC3CCN(c4ccc(C(=O)N[C@H]5CC[C@H](Oc6ccc(C#N)c(Cl)c6)CC5)nn4)CC3)c2)c2c(sc(C)c2C)-n2c(C)nnc21 [I-23] | > 3000 | 1500 to 3000 | < 500 |  |  | 
15 | CCNC(=O)C[C@@H]1N=C(c2ccc(CCCCCCOC3CCN(c4ccc(C(=O)N[C@H]5CC[C@H](Oc6ccc(C#N)c(Cl)c6)CC5)nn4)CC3)cc2)c2c(sc(C)c2C)-n2c(C)nnc21 [I-22] | 500 to 1500 | 500 to 1500 | < 500 |  |  | 
16 | CCNC(=O)C[C@@H]1N=C(c2ccc(N(C)C3CN(c4ccc(C(=O)N[C@H]5CC[C@H](Oc6ccc(C#N)c(Cl)c6)CC5)nn4)C3)cc2)c2c(sc(C)c2C)-n2c(C)nnc21 [I-65] | 500 to 1500 | 500 to 1500 | < 500 |  |  | 
17 | Cc1sc2c(c1C)C(c1ccc(C3CCC(CC4CCN(c5ccc(C(=O)N[C@H]6CC[C@H](Oc7ccc(C#N)c(Cl)c7)CC6)nn5)CC4)CC3)cc1)=N[C@@H](C)c1nnc(C)n1-2 (stereo partly drawn) [I-764] | < 500 | > 3000 | < 500 |  |  | 

Row | SMILES | GI50 (VCaP cells; Homo sapiens, VCaP, 72 h) [nM] | GI50 ([1]; 72 h) [nM] | GI50 ([2]; 72 h) [nM] | GI50 (VCaP cells) [nM] | GI50 [1] [nM] | GI50 [2] [nM]
18 | Cc1sc2c(c1C)C(c1ccc(C3CCC4(CC3)CCN(c3ccc(C(=O)N[C@H]5CC[C@H](Oc6ccc(C#N)c(Cl)c6)CC5)nn3)C4)nc1)=N[C@@H](C)c1nnc(C)n1-2 (stereo partly drawn) [I-534] |  |  |  | > 3000 | < 500 | < 500
19 | Cc1sc2c(c1C)C(c1ccc(NCC3CCN(c4ncc(C(=O)N[C@H]5CC[C@H](Oc6ccc(C#N)c(Cl)c6)CC5)cn4)C3)cc1)=NC(Cc1ncco1)c1nnc(C)n1-2 (mixture of isomers) [I-788] |  |  |  | < 500 | < 500 | < 500
20 | Cc1sc2c(c1C)C(c1ccc(CC3CCC4(C3)CN(c3ccc(C(=O)N[C@H]5CC[C@H](Oc6ccc(C#N)c(Cl)c6)CC5)nn3)CCO4)cc1)=N[C@@H](C)c1nnc(C)n1-2 (stereo partly drawn) [I-581] |  |  |  | < 500 | < 500 | < 500
21 | Cc1sc2c(c1C)C(c1ccc(N3CCC4(CCCN(c5ccc(C(=O)N[C@H]6CC[C@H](Oc7ccc(C#N)c(Cl)c7)CC6)nn5)C4)CC3)nc1)=NC1(CC1)c1nnc(C)n1-2 [I-448] | 1500 to 3000 | > 3000 | < 500 |  |  | 
22 | Cc1sc2c(c1C)C(c1ccccc1CC1CC3(CCCN(c4ccc(C(=O)N[C@H]5CC[C@H](Oc6ccc(C#N)c(Cl)c6)CC5)nn4)C3)C1)=N[C@@H](C)c1nnc(C)n1-2 (stereo partly drawn) [I-755] |  |  |  | 1500 to 3000 | > 3000 | > 3000
23 | COC[C@@H]1N=C(c2ccc(C3CCC4(CCN(c5ccc(C(=O)N[C@H]6CC[C@H](Oc7ccc(C#N)c(Cl)c7)CC6)nn5)CC4)C3)cc2)c2c(sc(C)c2C)-n2c(C)nnc21 (stereo partly drawn) [I-658] | < 500 | < 500 | < 500 |  |  | 
24 | Cc1sc2c(c1C)C(c1ccc(N3CCC(CN4CCN(c5ccc(C(=O)N[C@H]6CC[C@H](Oc7ccc(C#N)c(Cl)c7)CC6)nn5)CC4)CC3)cc1)=N[C@@H](C)c1nnc(C)n1-2 [I-499] | < 500 | > 3000 | < 500 |  |  | 
25 | CCNC(=O)C[C@@H]1N=C(c2ccc(N3CC(N(C(C)C)C4CN(c5ccc(C(=O)N[C@H]6CC[C@H](Oc7ccc(C#N)c(Cl)c7)CC6)nn5)C4)C3)cc2)c2c(sc(C)c2C)-n2c(C)nnc21 [I-64] | < 500 | 500 to 1500 | < 500 |  |  | 
26 | Cc1sc2c(c1C)C(c1ccc(OC3CC4(CCN(c5ccc(C(=O)N[C@H]6CC[C@H](Oc7ccc(C#N)c(Cl)c7)CC6)nn5)CC4)C3)cn1)=N[C@@H](C)c1nnc(C)n1-2 [I-484] |  |  | < 500 | < 500 | 500 to 1500 | 
27 | Cc1sc2c(c1C)C(c1ccc(OCC3CCC4(C3)CN(c3ccc(C(=O)N[C@H]5CC[C@H](Oc6ccc(C#N)c(Cl)c6)CC5)nn3)CCO4)cc1)=N[C@@H](C)c1nnc(C)n1-2 (stereo partly drawn) [I-667] |  |  | < 500 | < 500 | < 500 | 
28 | Cc1sc2c(c1C)C(c1ccc(CC3CC4(CCCN(c5ccc(C(=O)N[C@H]6CC[C@H](Oc7ccc(C#N)c(Cl)c7)CC6)nn5)C4)C3)cc1)=NCc1nnc(C)n1-2 (stereo partly drawn) [I-474] |  |  | < 500 | > 3000 | > 3000 | 
29 | Cc1sc2c(c1C)C(c1ccc(C3CCC4(CCN(c5ccc(C(=O)N[C@H]6CC[C@H](Oc7ccc(C#N)c(Cl)c7)CC6)nn5)C4)C3)cc1)=N[C@@H](C)c1nnc(C)n1-2 (stereo partly drawn) [I-823, N-[4-(3-chloro-4-cyano-phenoxy)cyclohexyl]-6-[8-[4-[(9S)-4,5,9,13-tetramethyl-3-thia-1,8,11,12-tetrazatricyclo[8.3.0.02,6]trideca-2(6),4,7,10,12-pentaen-7-yl]phenyl]-2-azaspiro[4.4]nonan-2-yl]pyridazine-3-carboxamide] |  |  |  | < 500 | < 500 | < 500
30 | Cc1sc2c(c1C)C(c1ccc(N3CCOC4(CCN(c5ccc(C(=O)N[C@H]6CC[C@H](Oc7ccc(C#N)c(Cl)c7)CC6)nn5)C4)C3)cc1)=N[C@@H](C)c1nnc(C)n1-2 (single isomer, unassigned) [I-827] | < 500 | < 500 | < 500 |  |  | 
31 | Cc1sc2c(c1C)C(c1ccc(C3CCC4(CC3)CCN(c3ccc(C(=O)N[C@H]5CC[C@H](Oc6ccc(C#N)c(Cl)c6)CC5)nn3)C4)nc1)=N[C@@H](C)c1nnc(C)n1-2 (stereo partly drawn) [I-533] |  | < 500 | < 500 | < 500 |  | 
32 | Cc1sc2c(c1C)C(c1cccc(OC3CCC4(CC3)CCN(c3ccc(C(=O)N[C@H]5CC[C@H](Oc6ccc(C#N)c(Cl)c6)CC5)nn3)C4)c1)=N[C@@H](C)c1nnc(C)n1-2 (stereo partly drawn) [I-747] |  |  | < 500 | < 500 | < 500 | 
33 | CCNC(=O)C[C@@H]1N=C(c2ccc(N3CC(N(C)C4CCN(c5ccc(C(=O)N[C@H]6CC[C@H](Oc7ccc(C#N)c(Cl)c7)CC6)nn5)CC4)C3)cc2)c2c(sc(C)c2C)-n2c(C)nnc21 [I-62] | < 500 | > 3000 | < 500 |  |  | 
34 | Cc1sc2c(c1C)C(c1ccc(N3CCC4(CCN(c5ccc(C(=O)N[C@H]6CC[C@H](Oc7ccc(C#N)c(Cl)c7)CC6)nn5)C4)C3)cc1F)=N[C@@H](C)c1nnc(C)n1-2 (stereo partly drawn) [I-732] |  | < 500 | < 500 | < 500 |  | 
